PubChem BioAssay (NCI)
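Grown in 96-well plates, cells were treated for 48 hours with each compound at five concentrations. Insufficient inhibition: endpoint recorded as highest concentration tested. At the GI50, growth is halved. TGI is the concentration that stops growth completely.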

Tests used:
Assay in all cases: NCI tumour cell line growth inhibition, 48 h
[1] = tested on: SK-MEL-2 melanoma
[2] = tested on: K-562 leukemia
[3] = tested on: SK-MEL-5 melanoma
[4] = tested on: HL-60(TB) leukemia
[5] = tested on: A549 NSCLC
[6] = tested on: NCI-H23 lung
[7] = tested on: U251 CNS
[8] = tested on: M14 melanoma
[9] = tested on: SK-MEL-28 melanoma
[10] = tested on: HOP-62 NSCLC
[11] = tested on: ACHN renal
[12] = tested on: CCRF-CEM leukemia
[13] = tested on: BT-549 breast
[14] = tested on: MDA-MB-435
[15] = tested on: HT29 colon
[16] = tested on: SF-539 CNS
[17] = tested on: SF-268 CNS
[18] = tested on: CAKI-1 renal
[19] = tested on: 786-0 renal
[20] = tested on: IGROV1 ovarian
[21] = tested on: UO-31 renal
[22] = tested on: DU-145 prostate
[23] = tested on: SNB-19 CNS
[24] = tested on: MOLT-4 leukemia
[25] = tested on: RXF 393 renal
[26] = tested on: RPMI-8226 leukemia
[27] = tested on: OVCAR-4 ovarian
[28] = tested on: KM12 colon
[29] = tested on: EKVX NSCLC
[30] = tested on: MDA-MB-231 breast
[31] = tested on: HCT-15 colon
[32] = tested on: HS 578T breast
[33] = tested on: HOP-92 NSCLC
[34] = tested on: NCI-H460 lung
[35] = tested on: SNB-75 CNS
[36] = tested on: SW-620 colon
[37] = tested on: OVCAR-3 ovarian
[38] = tested on: T-47D breast
[39] = tested on: A498 renal
[40] = tested on: SK-OV-3 ovarian
[41] = tested on: UACC-257 melanoma
[42] = tested on: UACC-62 melanoma
[43] = tested on: TK-10 renal
[44] = tested on: OVCAR-5 ovarian
[45] = tested on: NCI-H226 lung
[46] = tested on: HCC-2998 colon
[47] = tested on: SN12C renal
[48] = tested on: PC-3 prostate
[49] = tested on: HCT-116 colon
[50] = tested on: NCI-H522 lung
[51] = tested on: COLO 205 colon
[52] = tested on: MALME-3M melanoma

## CCCCCCCCCCCCCCCCCC1=NC(C)(C)CN1C(C)(C)CO
[1]
  GI50: 1830 nM
  TGI: 3510 nM
[2]
  GI50: 1110 nM
  TGI: 4050 nM
[3]
  GI50: 1680 nM
  TGI: 3070 nM
[4]
  GI50: 1150 nM
  TGI: 4070 nM
[5]
  GI50: 1680 nM
  TGI: 3310 nM
[6]
  GI50: 1520 nM
  TGI: 2990 nM
[7]
  GI50: 1420 nM
  TGI: 3030 nM
[8]
  GI50: 1460 nM
  TGI: 2880 nM
[9]
  GI50: 1810 nM
  TGI: 3280 nM
[10]
  GI50: 1720 nM
  TGI: 3190 nM
[11]
  GI50: 1530 nM
  TGI: 3050 nM
[12]
  GI50: 1390 nM
  TGI: 4880 nM
[13]
  GI50: 3280 nM
  TGI: 14000 nM
[14]
  GI50: 1580 nM
  TGI: 3420 nM
[15]
  GI50: 1440 nM
  TGI: 3440 nM
[16]
  GI50: 1590 nM
  TGI: 3140 nM
[17]
  GI50: 1540 nM
  TGI: 3020 nM
[18]
  GI50: 1600 nM
  TGI: 3900 nM
[19]
  GI50: 1450 nM
  TGI: 2890 nM
[20]
  GI50: 1080 nM
  TGI: 2600 nM
[21]
  GI50: 1420 nM
  TGI: 3430 nM
[22]
  GI50: 1610 nM
  TGI: 3030 nM
[23]
  GI50: 1790 nM
  TGI: 4540 nM
[24]
  GI50: 1450 nM
  TGI: 4050 nM
[25]
  GI50: 1110 nM
  TGI: 2360 nM
[26]
  GI50: 1800 nM
  TGI: 4370 nM
[27]
  GI50: 2050 nM
  TGI: 4920 nM
[28]
  GI50: 1340 nM
  TGI: 2640 nM
[29]
  GI50: 2210 nM
  TGI: 14000 nM
[30]
  GI50: 1290 nM
  TGI: 3160 nM
[31]
  GI50: 1380 nM
  TGI: 3160 nM
[32]
  GI50: 1620 nM
  TGI: 3980 nM
[33]
  GI50: 850 nM
  TGI: 3370 nM
[34]
  GI50: 1310 nM
  TGI: 2800 nM
[35]
  GI50: 1470 nM
  TGI: 3130 nM
[36]
  GI50: 1480 nM
  TGI: 2900 nM
[37]
  GI50: 1500 nM
  TGI: 2960 nM
[38]
  GI50: 2300 nM
  TGI: 5550 nM
[39]
  GI50: 11200 nM
  TGI: 31200 nM
[40]
  GI50: 1840 nM
  TGI: 3510 nM
[41]
  GI50: 1780 nM
  TGI: 3500 nM
[42]
  GI50: 1790 nM
  TGI: 3460 nM
[43]
  GI50: 1830 nM
  TGI: 3340 nM
[44]
  GI50: 1560 nM
  TGI: 3480 nM
[45]
  GI50: 2140 nM
  TGI: 4060 nM
[46]
  GI50: 1200 nM
  TGI: 2500 nM
[47]
  GI50: 1520 nM
  TGI: 3250 nM
[48]
  GI50: 1850 nM
  TGI: 4810 nM
[49]
  GI50: 559 nM
  TGI: 2010 nM
[50]
  GI50: 1630 nM
  TGI: 3250 nM
[51]
  GI50: 407 nM
  TGI: 1380 nM
[52]
  GI50: 1940 nM
  TGI: 4220 nM
